# Patent publication US6951647B2, “T cell binding ligand peptides and method of inducing a cellular immune response” (Cel-Sci Corporation, priority 2001, dated 2005)
# Several values for one entry are separate records, joined by “and”; a condition that tells them apart may be missing. Equal values may be shown once.
# Key:
# [1] = tested on: B Clade; experiment: ELISA cross clade recognition by sera of immunized mice, B Clade; format: in vivo; conditions: for ELISA test antigen B Clade: day 42 test bleeding
# [2] = tested on: Peptide G; experiment: Specificity analysis for the TCBL carrier, ELISA plates coated with Peptide G; format: in vivo, Mice; conditions: for A 490 1:200 dilution on plates coated with Peptide G: Average
# Procedure: Mice in groups (5-10 animals per group as designated) are immunized with the LEAPS constructs (25 μg/dose) of SEQ ID NO's:37, 38 and 39, in 0.2 mL emulsified 1:1 with adjuvant (Seppic's ISA-51 or Corixa's microfluidized MPL S/E) on days 0 and 14. Mice are evaluated by Delayed Type of Hypersensitivity (DTH) by inoculation on day 26 with 20 μl of a solution of saline or mH (SEQ ID NO:6) (25 μg in saline) in the left or right ear respectively. The DTH response is determined by measurement of the ear thickness 48 hours later and expressed as increase in ear thickness (mm) of experimental ear compared to that of the control ear. Individual animal sera are collected for measurement of antibody on day 28, 42, 63 and 77. Sera from individual animals and group pools are evaluated for specific anti-mH antibody, for total antibody, IgG1, IgG2a and IgG3 antibody isotype and cross clade titer at selected time points as indicated.
# A specificity analysis for the TCBL or KLH carrier for pools of day 42 test bleedings from the G-mH, G′-mH and mH/KLH, using either MPL S/E or ISA51 as adjuvant, was carried out (all sera assayed at a dilution of 1:200) and the results are shown in Table 5. […] This observation is especially significant for vaccines used on a repetitive basis, such as, either a vaccine that requires more frequent intervals between boosters for maintenance of cellular reactivity or as a therapeutic vaccine.
# [3] = tested on: modified HGP-30 (mH, SEQ ID NO:6); experiment: Isotype analysis (ELISA) of anti-mH antibody in sera of immunized mice; format: in vivo; design: IgG1 / IgG2a / IgG2b / IgG3: unit not given here; conditions: for IgG1 / IgG2a / IgG2b / IgG3: ELISA signal, day 42 test bleeding; for Ig1, serial dilution 1:200 / Ig1, serial dilution 1:800 / Ig1, serial dilution 1:3200 / Ig1, serial dilution 1:12800 / Ig1, serial dilution 1:51200 / Ig1, serial dilution 1:204800 / Ig2a, serial dilution 1:200 / Ig2a, serial dilution 1:800 / Ig2a, serial dilution 1:3200 / Ig2a, serial dilution 1:12800 / Ig2a, serial dilution 1:51200 / Ig2a, serial dilution 1:204800 / Ig2b, serial dilution 1:200 / Ig2b, serial dilution 1:800 / Ig2b, serial dilution 1:3200 / Ig2b, serial dilution 1:12800 / Ig2b, serial dilution 1:51200 / Ig2b, serial dilution 1:204800 / Ig3, serial dilution 1:200 / Ig3, serial dilution 1:800 / Ig3, serial dilution 1:3200 / Ig3, serial dilution 1:12800 / Ig3, serial dilution 1:51200 / Ig3, serial dilution 1:204800: day 28 pool
# Summary of the method: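 Mice (5-10 per group) immunized days 0 and 14 with LEAPS constructs, 25 μg/dose emulsified 1:1 in ISA-51 or MPL S/E adjuvant. Individual and pooled sera from selected bleeds (days 28 to 77) assayed by ELISA for anti-mH total IgG, IgG1, IgG2a and IgG3.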
# [4] = tested on: modified HGP-30; experiment: ELISA antibody screening of sera of immunized mice on modified HGP-30; format: in vivo; conditions: for ELISA test antigen Modified HGP-30: day 42 test bleeding
# [5] = tested on: E Clade; experiment: ELISA cross clade recognition by sera of immunized mice, E Clade; format: in vivo; conditions: day 42 test bleeding, individual mouse
# [6] = day 63 test bleeding, sera 1:200, individual mouse
# [7] = group without '(with MPL)' (ISA51)
substance,measurement,setting,value
"DGQ EEK AGV VST GLI GGG ATL YSV HQR IDV KDT KEA LEK IEE EQN KS (DGQEEKAGVVSTGLIGGGYLSGANLNL) [SEQ ID NO: 57, Peptide G′ linked by GGG spacer to modified HGP-30 (mH)]",ELISA test antigen B Clade,"[1]; group (A), Group Average",0.346
same,ELISA test antigen B Clade,"[1]; group (A), individual mouse",0.271 and 0.000 and 0.036 and 0.507 and 0.187 and 1.074
same,ELISA test antigen B Clade,"[1]; group (B), Group Average",1.410
same,ELISA test antigen B Clade,"[1]; group (B), individual mouse",2.348 and 0.496 and 1.799 and 1.228 and 2.244 and 0.349
same,ELISA signal on B Clade,[1]; [6],1.667 and 0.160 and 0.099 and 0.236 and 1.547 and 0.470 and 1.138 and 0.994 and 0.000 and 0.505
same,A 490 1:200 dilution on plates coated with Peptide G,"[2]; day 42, first set of groups",0.080 A 490
same,A 490 1:200 dilution on plates coated with Peptide G,"[2]; day 42, second set of groups",0.062 A 490
same,Reactivity toward the delivery vehicle TCBL,"[2]; day 42 sera at 1:200, Table 5, in words",minimal reactivity
same,IgG1,[3]; group Average,2.667
same,IgG2a,[3]; group Average,1.427
same,IgG2b,[3]; group Average,1.695
same,IgG3,[3]; group Average,1.562
same,IgG1,[3]; individual mouse,2.577 and 2.623 and 2.588 and 2.601 and 2.757 and 2.886 and 2.768 and 2.574 and 2.628 and 2.671
same,IgG2a,[3]; individual mouse,1.399 and 1.302 and 1.630 and 0.467 and 1.249 and 2.275 and 0.998 and 1.693 (2×) and 1.566
same,IgG2b,[3]; individual mouse,2.050 and 1.588 and 1.735 and 0.534 and 1.261 and 2.717 and 1.656 and 2.009 and 1.613 and 1.785
same,IgG3,[3]; individual mouse,1.853 and 1.268 and 1.856 and 1.229 and 2.186 and 1.921 and 1.276 and 2.181 and 0.672 and 1.183
same,"Ig1, serial dilution 1:200",[3]; [7],3.006
same,"Ig1, serial dilution 1:800",[3]; [7],2.441
same,"Ig1, serial dilution 1:3200",[3]; [7],1.755
same,"Ig1, serial dilution 1:12800",[3]; [7],1.069
same,"Ig1, serial dilution 1:51200",[3]; [7],0.367
same,"Ig1, serial dilution 1:204800",[3]; [7],0.114
same,"Ig2a, serial dilution 1:200",[3]; [7],0.729
same,"Ig2a, serial dilution 1:800",[3]; [7],0.218
same,"Ig2a, serial dilution 1:3200",[3]; [7],0.068
same,"Ig2a, serial dilution 1:12800",[3]; [7],0.025
same,"Ig2a, serial dilution 1:51200",[3]; [7],0.015
same,"Ig2a, serial dilution 1:204800",[3]; [7],0.008
same,"Ig2b, serial dilution 1:200",[3]; [7],1.420
same,"Ig2b, serial dilution 1:800",[3]; [7],0.505
same,"Ig2b, serial dilution 1:3200",[3]; [7],0.134
same,"Ig2b, serial dilution 1:12800",[3]; [7],0.054
same,"Ig2b, serial dilution 1:51200",[3]; [7],0.014
same,"Ig2b, serial dilution 1:204800",[3]; [7],0.000
same,"Ig3, serial dilution 1:200",[3]; [7],1.132
same,"Ig3, serial dilution 1:800",[3]; [7],0.358
same,"Ig3, serial dilution 1:3200",[3]; [7],0.092
same,"Ig3, serial dilution 1:12800",[3]; [7],0.020
same,"Ig3, serial dilution 1:51200",[3]; [7],0.004
same,"Ig3, serial dilution 1:204800",[3]; [7],0.000
same,"Ig1, serial dilution 1:200",[3]; with MPL,2.642
same,"Ig1, serial dilution 1:800",[3]; with MPL,1.638
same,"Ig1, serial dilution 1:3200",[3]; with MPL,0.652
same,"Ig1, serial dilution 1:12800",[3]; with MPL,0.279
same,"Ig1, serial dilution 1:51200",[3]; with MPL,0.091
same,"Ig1, serial dilution 1:204800",[3]; with MPL,0.014
same,"Ig2a, serial dilution 1:200",[3]; with MPL,1.961
same,"Ig2a, serial dilution 1:800",[3]; with MPL,0.899
same,"Ig2a, serial dilution 1:3200",[3]; with MPL,0.263
same,"Ig2a, serial dilution 1:12800",[3]; with MPL,0.081
same,"Ig2a, serial dilution 1:51200",[3]; with MPL,0.028
same,"Ig2a, serial dilution 1:204800",[3]; with MPL,0.005
same,"Ig2b, serial dilution 1:200",[3]; with MPL,1.872
same,"Ig2b, serial dilution 1:800",[3]; with MPL,0.881
same,"Ig2b, serial dilution 1:3200",[3]; with MPL,0.253
same,"Ig2b, serial dilution 1:12800",[3]; with MPL,0.104
same,"Ig2b, serial dilution 1:51200",[3]; with MPL,0.011
same,"Ig2b, serial dilution 1:204800",[3]; with MPL,0.006
same,"Ig3, serial dilution 1:200",[3]; with MPL,1.965
same,"Ig3, serial dilution 1:800",[3]; with MPL,0.805
same,"Ig3, serial dilution 1:3200",[3]; with MPL,0.215
same,"Ig3, serial dilution 1:12800",[3]; with MPL,0.045
same,"Ig3, serial dilution 1:51200",[3]; with MPL,0.005
same,"Ig3, serial dilution 1:204800",[3]; with MPL,0.000
same,Levels of TH1 preferred isotypes relative to TH2 isotype (IgG1),"[3]; day 42 test bleedings, Table 1, in words",significantly higher signals
same,A 490 1:200 dilution on plates coated with modified HGP-30,"[4]; day 42, first set of groups (animals 4637-4648, 4674-4678), individual animal",2.178 A 490 and 1.411 A 490 and 2.314 A 490 and 2.555 A 490 and 2.404 A 490 and 2.273 A 490
same,A 490 1:200 dilution on plates coated with modified HGP-30,"[4]; day 42, first set of groups, Average",2.189 A 490
same,A 490 1:200 dilution on plates coated with modified HGP-30,"[4]; day 42, second set of groups (animals 4662-4673, 4679-4683), individual animal",1.968 A 490 and 1.422 A 490 and 1.755 A 490 and 2.450 A 490 and 2.403 A 490 and 1.399 A 490
same,A 490 1:200 dilution on plates coated with modified HGP-30,"[4]; day 42, second set of groups, Average",1.899 A 490
same,ELISA test antigen Modified HGP-30,"[4]; group (A), Group Average",2.433
same,ELISA test antigen Modified HGP-30,"[4]; group (A), individual mouse",2.307 and 1.589 and 2.432 and 2.867 and 2.627 and 2.780
same,ELISA test antigen Modified HGP-30,"[4]; group (B), Group Average",2.672
same,ELISA test antigen Modified HGP-30,"[4]; group (B), individual mouse",2.330 and 2.213 and 2.534 and 3.358 and 3.030 and 2.571
same,ELISA signal on modified HGP-30,[4]; [6],2.737 and 2.471 and 2.569 and 2.093 and 2.512 and 3.115 and 3.153 and 2.922 and 2.236 and 2.534
same,ELISA test antigen E Clade,[5]; group (A),0.092 and 0.000 (3×) and 0.018 and 0.101
same,ELISA test antigen E Clade,[5]; group (B),0.000 (2×) and 0.054 and 0.358 and 0.113 and 0.037
